In patent US6750228B1, “Aromatic sulfone hydroxamic acid metalloprotease inhibitor” (priority 1997, dated 2004):
Counter-ions that a name gives are not always drawn. Like-named read-outs stand apart in the source and are kept apart here.

Columns and labels:
Assay in all cases: biochemical
MMP-1 = biological target: T1, MMP-1 (Homo sapiens, UniProt P03956); conditions: read-out: MMP-1 IC50
T1 construct: made in house; host or cells: transfected HT-1080 cells (provided by Dr. Harold Welgus, Washington University)
T1 sequence (P03956 100-469): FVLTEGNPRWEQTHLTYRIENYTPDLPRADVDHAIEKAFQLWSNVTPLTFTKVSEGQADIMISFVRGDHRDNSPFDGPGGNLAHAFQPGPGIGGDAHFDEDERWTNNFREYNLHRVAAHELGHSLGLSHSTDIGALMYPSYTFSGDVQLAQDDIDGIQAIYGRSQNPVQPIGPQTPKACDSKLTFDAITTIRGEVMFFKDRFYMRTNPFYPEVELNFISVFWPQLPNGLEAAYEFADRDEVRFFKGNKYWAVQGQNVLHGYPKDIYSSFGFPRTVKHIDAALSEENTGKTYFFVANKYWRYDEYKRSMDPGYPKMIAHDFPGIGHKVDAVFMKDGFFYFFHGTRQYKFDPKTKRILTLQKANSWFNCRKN
Outline: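 Substrate MCA-PLGL-Dpa-AR-NH2 at 4 μM final; pH 7.5 Tris/NaCl/CaCl2 buffer with 0.05% polyethyleneglycol lauryl ether, 1% DMSO, room temperature. MMP-1 was expressed in transfected HT-1080 cells and APMA-activated.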

MMP-2 = biological target: T2, MMP-2 (Homo sapiens, UniProt P08253); conditions: read-out: MMP-2 IC50
T2 construct: made in house; provided by Dr. Gregory Goldberg, Washington University
T2 sequence (P08253 110-660): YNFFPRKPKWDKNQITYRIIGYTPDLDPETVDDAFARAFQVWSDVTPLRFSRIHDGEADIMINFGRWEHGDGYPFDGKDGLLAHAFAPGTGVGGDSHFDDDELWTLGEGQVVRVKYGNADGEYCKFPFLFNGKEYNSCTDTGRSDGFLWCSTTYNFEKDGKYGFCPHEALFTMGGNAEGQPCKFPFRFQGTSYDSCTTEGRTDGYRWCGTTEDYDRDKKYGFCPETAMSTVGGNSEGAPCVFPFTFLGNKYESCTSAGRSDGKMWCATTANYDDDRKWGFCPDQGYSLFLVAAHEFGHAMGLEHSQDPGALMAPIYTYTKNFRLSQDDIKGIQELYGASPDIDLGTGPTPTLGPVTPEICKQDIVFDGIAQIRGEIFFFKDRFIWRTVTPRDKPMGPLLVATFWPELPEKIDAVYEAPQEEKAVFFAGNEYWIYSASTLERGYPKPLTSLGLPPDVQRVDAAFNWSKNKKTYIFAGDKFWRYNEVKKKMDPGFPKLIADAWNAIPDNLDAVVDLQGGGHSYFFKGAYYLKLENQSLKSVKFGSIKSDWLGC
Outline: (§1)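 APMA- or trypsin-activated enzymes were preincubated with inhibitor for 5 min at room temperature, then the fluorogenic substrate MCA-Pro-Leu-Gly-Leu-Dpa-Ala-Arg-NH2 was added to a final 4 μM.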

MMP-13 = biological target: T3, MMP-13 (Homo sapiens, UniProt P45452); conditions: read-out: MMP-13 IC50
T3 construct: made in house; host or cells: baculovirus / insect cells
Outline: as §1

[1] = recombinant human MMP-1, MCA peptide substrate 4 μM, pH 7.5, room temperature
[2] = recombinant human MMP-2, MCA peptide substrate 4 μM, pH 7.5, room temperature
[3] = recombinant human MMP-13, MCA peptide substrate 4 μM, pH 7.5, room temperature

Structure (SMILES) | IC50 (MMP-1; [1]) [nM] | IC50 (MMP-2; [2]) [nM] | IC50 (MMP-13; [3]) [nM] | IC50 (MMP-1) [nM] | IC50 (MMP-2) [nM] | IC50 (MMP-13) [nM]
O=C(NO)C1(S(=O)(=O)c2ccc(N3CCCC(COCc4ccccc4)C3)cc2)CCOCC1 (stereo not drawn) [Example 504] | > 10000 | 220 | 6.3 | – | – | –
O=C(NO)C1(S(=O)(=O)c2ccc(N3CCC(OCc4cccnc4)CC3)cc2)CCOCC1 [Example 580] | > 10000 | 700 | 37.2 | – | – | –
COCCN1CCC(C(=O)NO)(S(=O)(=O)c2ccc(N3CCC(OCc4ccc(F)cc4C(F)(F)F)CC3)cc2)CC1 [Example 447] | > 10000 | 155 | 23.9 | – | – | –
CC1CC(C)CN(C(=O)C2CCN(c3ccc(S(=O)(=O)C4(C(=O)NO)CCN(C(=O)CN5CCCCC5)CC4)cc3)CC2)C1 (stereo not drawn) [Example 296] | > 10000 | > 10000 | 50 | – | – | –
O=C(NO)C1(S(=O)(=O)c2ccc(N3CCC([S+]([O-])c4ccccc4)CC3)cc2)CCN(C2CC2)CC1 (stereo not drawn) [Example 459] | > 10000 | 3100 | 136 | – | – | –
O=C(NO)C1(S(=O)(=O)c2ccc(N3CCC(Oc4ccc(Cl)cc4)CC3)cc2)CCOCC1 [Example 615] | > 10000 | 11 | 3.1 | – | – | –
CC1CN(c2ccc(S(=O)(=O)C3(C(=O)NO)CCOCC3)cc2)CCN1c1ccccc1 (stereo not drawn) [Example 487] | > 10000 | 800 | 140 | – | – | –
O=C(Nc1ccncc1)C1CCN(c2ccc(S(=O)(=O)C3(C(=O)NO)CCOCC3)cc2)CC1 [Example 62] | > 10000 | 690 | 14 | – | – | –
O=C(c1ccccc1)C1CCN(c2ccc(S(=O)(=O)C3(C(=O)NO)CCOCC3)cc2)CC1 [Example 656] | > 10000 | 120 | 3.1 | – | – | –
CC1CC(C)CN(C(=O)C2CCN(c3ccc(S(=O)(=O)C4(C(=O)NO)CCN(C(=O)CN(CCCN(C)C)CCCN(C)C)CC4)cc3)CC2)C1 (stereo not drawn) [Example 302] | > 10000 | > 10000 | 175 | – | – | –
O=C(NO)C1(S(=O)(=O)c2ccc(Oc3ccc(OC(F)(F)F)cc3)cc2)CCN(C(=S)NCCN2CCCCC2)CC1 [Example 200] | 3000 | < 0.1 | 0.2 | – | – | –
O=C(NO)C1(S(=O)(=O)c2ccc(OC3CCC(OCc4cccc(Cl)c4)C3)cc2)CCOCC1 (stereo not drawn) [Example 669] | > 10000 | 22.7 | 4.3 | – | – | –
COCCN1CCN(c2ccc(S(=O)(=O)C3(C(=O)NO)CCOCC3)cc2)CC1 [Example 645] | > 10000 | 1200 | 370 | – | – | –
O=C(NO)C1(S(=O)(=O)c2ccc(N3CCC(Oc4ccc(Br)cc4)CC3)cc2)CCOCC1 [Example 479] | > 10000 | 60 | 5 | – | – | –
O=C(Nc1ccccc1Cl)N1CCC(C(=O)NO)(S(=O)(=O)c2ccc(Oc3ccc(OC(F)(F)F)cc3)cc2)CC1 [Example 365] | > 10000 | 0.1 | 0.3 | – | – | –
O=C(CCCCN1CCOCC1)N1CCC(C(=O)NO)(S(=O)(=O)c2ccc(Oc3ccc(C(F)(F)F)cc3)cc2)CC1 [Example 335] | > 10000 | 0.15 | 0.9 | – | – | –
CC1CC(C)CN(C(=O)C2CCN(c3ccc(S(=O)(=O)C4(C(=O)NO)CCN(C(=O)CNCc5ccccn5)CC4)cc3)CC2)C1 (stereo not drawn) [Example 284] | > 10000 | > 10000 | 130 | – | – | –
COc1cccc(S(=O)(=O)N2CCN(c3ccc(S(=O)(=O)C4(C(=O)NO)CCOCC4)cc3)CC2)c1 [Example 696] | > 10000 | 140 | 10 | – | – | –
O=C(Nc1c(F)cccc1F)N1CCC(C(=O)NO)(S(=O)(=O)c2ccc(Oc3ccc(OC(F)(F)F)cc3)cc2)CC1 [Example 361] | 5000 | < 0.1 | 0.5 | – | – | –
CN1CCN(CCCCC(=O)N2CCC(C(=O)NO)(S(=O)(=O)c3ccc(Oc4ccc(C(F)(F)F)cc4)cc3)CC2)CC1 [Example 339] | > 10000 | 0.3 | 1 | – | – | –

Structure (SMILES) | IC50 (MMP-1; [1]) [nM] | IC50 (MMP-2; [2]) [nM] | IC50 (MMP-13; [3]) [nM] | IC50 (MMP-1) [nM] | IC50 (MMP-2) [nM] | IC50 (MMP-13) [nM]
O=C(NO)C1(S(=O)(=O)c2ccc(Oc3ccc(OC(F)(F)F)cc3)cc2)CCN(Cc2cc(Cl)cc(Cl)c2)CC1 [Example 348] | > 10000 | 0.8 | 16.5 | – | – | –
O=C(NO)C1(S(=O)(=O)c2ccc(N3CCC(Oc4cccc(C(F)(F)F)c4)CC3)cc2)CCOCC1 [Example 620] | > 10000 | 225 | 27.8 | – | – | –
O=C(NO)C1(S(=O)(=O)c2ccc(N3CCN(c4cc(C(F)(F)F)ccn4)CC3)cc2)CCOCC1 [Example 534] | > 10000 | 480 | 30 | – | – | –
O=C(NO)C1(S(=O)(=O)c2ccc(N3CCN(c4ccc(Cl)cc4)CC3)cc2)CCOCC1 [Example 659] | > 10000 | 3.7 | 1 | – | – | –
CCCOC1CCN(c2ccc(S(=O)(=O)C3(C(=O)NO)CCOCC3)cc2)CC1 [Example 168] | > 10000 | 285 | 50 | – | – | –
CCCN(CC1CC1)C(=O)C1CCN(c2ccc(S(=O)(=O)C3(C(=O)NO)CCOCC3)cc2)CC1 [Example 35] | > 10000 | 9000 | 30 | – | – | –
CC1CC(C)CN(C(=O)C2CCN(c3ccc(S(=O)(=O)C4(C(=O)NO)CCSCC4)cc3)CC2)C1 (stereo not drawn) [Example 162] | – | – | – | > 10000 | 7000 | 27.8
CC1CN(c2ccc(S(=O)(=O)C3(C(=O)NO)CCOCC3)cc2)CCC1OCc1ccccc1 (stereo not drawn) [Example 581] | > 10000 | 480 | 27 | – | – | –
COc1c(F)c(F)c(COC2CCN(c3ccc(S(=O)(=O)C4(C(=O)NO)CCOCC4)cc3)CC2)c(F)c1F [Example 561] | > 10000 | 500 | 6 | – | – | –
O=C(NO)C1(S(=O)(=O)c2ccc(N3CCC(OCc4ccc(F)cc4)CC3)cc2)CCN(C2CC2)CC1 [Example 397] | > 10000 | 70 | 4.4 | – | – | –
O=C(NO)C1(S(=O)(=O)c2ccc(N3CCc4ccccc4C3)cc2)CCOCC1 [Example 484] | > 10000 | 100 | 240 | – | – | –
C=CCC(=O)C1CCN(c2ccc(S(=O)(=O)C3(C(=O)NO)CCOCC3)cc2)CC1 [Example 798] | > 10000 | 210 | 20 | – | – | –
Cc1ccc([N+](=O)[O-])c(OC2CCN(c3ccc(S(=O)(=O)C4(C(=O)NO)CCOCC4)cc3)CC2)c1 [Example 550] | > 10000 | 2000 | 20 | – | – | –
O=C(NO)C1(S(=O)(=O)c2ccc(N3CCN(S(=O)(=O)c4cccs4)CC3)cc2)CCOCC1 [Example 685] | > 10000 | 34.7 | 3 | – | – | –
O=C(Nc1ccccc1)C1CCN(c2ccc(S(=O)(=O)C3(C(=O)NO)CCN(C4CC4)CC3)cc2)CC1 [Example 243, 1-Cyclopropyl-N-hydroxy-4-[[4-[4-[(phenylamino)carbonyl]-1-piperidinyl]phenyl]sulfonyl]-4-piperidinecarboxamide, Monohydrochloride] | > 10000 | 420 | 11.3 | – | – | –
COc1ccc(C(=O)C2CCN(c3ccc(S(=O)(=O)C4(C(=O)NO)CCN(c5ccncc5)CC4)cc3)CC2)cc1 [Example 438] | > 10000 | 160 | 1.4 | – | – | –
O=C(NO)C1(S(=O)(=O)c2ccc(OC3CCC(OCc4cccc(Cl)c4)C3)cc2)CCOCC1 (stereo not drawn) [Example 668] | > 10000 | 25.8 | 2 | – | – | –
CCOc1cc(N2CCC(C(=O)NO)(S(=O)(=O)c3ccc(Oc4ccc(OC(F)(F)F)cc4)cc3)CC2)ncn1 [Example 411] | > 10000 | < 0.1 | 0.2 | – | – | –
O=C(NO)C1(S(=O)(=O)c2ccc(N3CCC(C(O)c4ccccc4)CC3)cc2)CCOCC1 (stereo not drawn) [Example 827] | > 10000 | 540 | 10 | – | – | –
